Results: ChEMBL document CHEMBL1201862, “PubChem BioAssay data set” (2004)
The source made the active and inactive calls.

Legend:
[1] = molecular target: Genome polyprotein (dengue virus type 2, UniProt P29990); experiment: Dengue-2 NS5 methyltransferase inhibitors, primary screen, biochemical, confirmation dose response (AID 588689); type: functional
[2] = molecular target: T1, Polyadenylate-binding protein 1 (Homo sapiens, UniProt P11940); experiment: PABP1 MLLE–PAM2 binding inhibitor potency, dose response, biochemical, fluorescence polarization, FITC-PAM2 peptide (AID 602259); type: functional; details: read-out: IC50_Mean
[3] = molecular target: T2, Protein RecA (Mycobacterium tuberculosis, UniProt P9WHJ3); experiment: Fluorescence Cell-Free Homogeneous Dose Retest to Identify Inhibitors of RecA-Intein Splicing Activity. [Related pubchem assays (depositor defined):AID2097, AID2223, AID489010, AID492950]; type: functional
T2 sequence (P9WHJ3 whole entry): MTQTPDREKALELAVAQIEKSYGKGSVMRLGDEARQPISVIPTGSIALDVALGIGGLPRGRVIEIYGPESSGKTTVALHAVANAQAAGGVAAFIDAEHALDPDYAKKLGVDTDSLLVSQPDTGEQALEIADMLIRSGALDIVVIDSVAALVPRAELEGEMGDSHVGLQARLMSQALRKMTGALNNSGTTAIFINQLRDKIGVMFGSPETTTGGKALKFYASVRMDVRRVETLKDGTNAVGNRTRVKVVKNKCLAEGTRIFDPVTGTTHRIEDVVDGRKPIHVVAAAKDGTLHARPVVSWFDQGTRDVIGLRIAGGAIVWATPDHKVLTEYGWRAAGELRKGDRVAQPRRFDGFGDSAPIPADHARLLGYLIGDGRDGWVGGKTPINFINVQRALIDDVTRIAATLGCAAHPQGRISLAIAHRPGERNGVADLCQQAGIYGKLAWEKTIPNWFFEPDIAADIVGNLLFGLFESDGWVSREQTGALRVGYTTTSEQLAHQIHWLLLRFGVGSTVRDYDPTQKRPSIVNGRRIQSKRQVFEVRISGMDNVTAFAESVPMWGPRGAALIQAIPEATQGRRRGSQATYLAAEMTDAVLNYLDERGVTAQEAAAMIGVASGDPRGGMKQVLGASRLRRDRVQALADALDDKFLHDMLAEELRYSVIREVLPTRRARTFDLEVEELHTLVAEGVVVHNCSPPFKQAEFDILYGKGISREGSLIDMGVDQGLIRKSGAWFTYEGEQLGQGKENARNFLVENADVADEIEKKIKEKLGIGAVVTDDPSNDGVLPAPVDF

[4] = molecular target: T3, Histone-lysine N-methyltransferase NSD2 (Homo sapiens, UniProt O96028); type: biochemical
T3 sequence (O96028 whole entry): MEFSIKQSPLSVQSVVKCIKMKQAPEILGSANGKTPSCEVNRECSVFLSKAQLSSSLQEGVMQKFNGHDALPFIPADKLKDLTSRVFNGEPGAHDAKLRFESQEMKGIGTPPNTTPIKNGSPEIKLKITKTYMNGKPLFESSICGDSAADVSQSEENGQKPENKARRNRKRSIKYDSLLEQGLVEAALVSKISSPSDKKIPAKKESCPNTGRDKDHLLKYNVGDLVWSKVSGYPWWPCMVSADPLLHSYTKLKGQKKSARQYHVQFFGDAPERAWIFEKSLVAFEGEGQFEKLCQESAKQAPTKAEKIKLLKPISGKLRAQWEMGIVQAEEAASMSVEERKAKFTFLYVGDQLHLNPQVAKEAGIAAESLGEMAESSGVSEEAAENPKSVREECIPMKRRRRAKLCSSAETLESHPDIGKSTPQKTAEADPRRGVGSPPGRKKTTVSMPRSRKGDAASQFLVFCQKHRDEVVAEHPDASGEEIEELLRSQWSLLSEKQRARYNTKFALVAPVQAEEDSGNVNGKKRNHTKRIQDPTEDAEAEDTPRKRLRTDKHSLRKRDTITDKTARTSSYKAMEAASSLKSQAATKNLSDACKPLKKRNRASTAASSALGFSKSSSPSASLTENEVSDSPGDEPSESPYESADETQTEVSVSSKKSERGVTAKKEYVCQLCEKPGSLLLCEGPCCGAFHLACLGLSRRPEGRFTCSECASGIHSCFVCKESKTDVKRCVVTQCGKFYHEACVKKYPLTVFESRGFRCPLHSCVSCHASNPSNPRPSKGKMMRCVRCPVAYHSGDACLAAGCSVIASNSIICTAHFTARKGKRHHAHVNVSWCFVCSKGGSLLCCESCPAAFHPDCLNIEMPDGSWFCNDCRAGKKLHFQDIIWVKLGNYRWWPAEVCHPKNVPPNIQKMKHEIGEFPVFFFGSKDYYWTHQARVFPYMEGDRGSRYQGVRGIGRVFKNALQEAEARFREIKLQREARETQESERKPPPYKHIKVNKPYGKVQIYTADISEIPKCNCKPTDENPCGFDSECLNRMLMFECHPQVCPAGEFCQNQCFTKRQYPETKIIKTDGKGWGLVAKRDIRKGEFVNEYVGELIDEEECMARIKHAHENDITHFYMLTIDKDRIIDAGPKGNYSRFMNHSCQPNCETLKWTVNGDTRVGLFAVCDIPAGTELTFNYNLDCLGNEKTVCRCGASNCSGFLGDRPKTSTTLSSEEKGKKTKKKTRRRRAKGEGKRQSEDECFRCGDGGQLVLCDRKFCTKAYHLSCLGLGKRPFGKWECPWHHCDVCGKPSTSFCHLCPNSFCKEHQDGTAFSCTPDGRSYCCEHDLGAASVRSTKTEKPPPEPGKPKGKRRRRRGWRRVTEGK

[5] = molecular target: Induced myeloid leukemia cell differentiation protein Mcl-1 (Homo sapiens, UniProt Q07820); type: functional
[6] = molecular target: T1, Polyadenylate-binding protein 1; experiment: PABP1 MLLE–PAM2 interaction inhibitors, dose response, miRNA deadenylation inhibitor project, biochemical, fluorescence polarization, Cy5-PAM2 peptide, secondary (AID 602260); type: functional; details: read-out: IC50_Mean
[7] = molecular target: T4, Replicative DNA helicase DnaB (Mycobacterium tuberculosis, UniProt P9WMR3); experiment: DnaB intein splicing inhibitors, dose response, biochemical, cell-free fluorescence (AID 449749); type: functional
T4 sequence (P9WMR3 whole entry): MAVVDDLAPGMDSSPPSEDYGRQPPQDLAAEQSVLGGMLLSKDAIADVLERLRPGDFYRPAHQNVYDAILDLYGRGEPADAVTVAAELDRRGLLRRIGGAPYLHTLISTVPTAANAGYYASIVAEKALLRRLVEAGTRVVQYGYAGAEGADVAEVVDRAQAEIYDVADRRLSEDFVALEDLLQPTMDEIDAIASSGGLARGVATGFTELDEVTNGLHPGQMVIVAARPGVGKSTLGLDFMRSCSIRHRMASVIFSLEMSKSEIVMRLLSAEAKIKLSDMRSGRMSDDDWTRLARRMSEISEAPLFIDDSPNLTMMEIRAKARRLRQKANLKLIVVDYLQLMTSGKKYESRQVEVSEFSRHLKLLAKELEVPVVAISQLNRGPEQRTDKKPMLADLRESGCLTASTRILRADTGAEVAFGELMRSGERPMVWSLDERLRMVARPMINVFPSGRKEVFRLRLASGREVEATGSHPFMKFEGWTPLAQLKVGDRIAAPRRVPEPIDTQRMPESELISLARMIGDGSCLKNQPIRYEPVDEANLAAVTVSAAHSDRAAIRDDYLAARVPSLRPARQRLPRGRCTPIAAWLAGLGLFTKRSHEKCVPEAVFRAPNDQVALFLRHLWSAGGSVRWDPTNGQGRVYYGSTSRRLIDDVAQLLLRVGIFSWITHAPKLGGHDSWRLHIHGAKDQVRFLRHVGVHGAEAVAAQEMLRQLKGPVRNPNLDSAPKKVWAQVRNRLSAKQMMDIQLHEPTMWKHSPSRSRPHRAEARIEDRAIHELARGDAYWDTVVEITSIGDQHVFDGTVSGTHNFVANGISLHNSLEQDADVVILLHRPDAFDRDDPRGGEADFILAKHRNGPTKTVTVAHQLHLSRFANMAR

[8] = molecular target: Nonstructural protein 1 (Influenza A virus, UniProt Q194T2); type: functional, Influenza A virus (A/California/07/2009(H1N1))
[9] = tested on: BJ; experiment: cytotoxicity toward BJ-TERT-LT-ST fibroblasts, dose response, cell-based, RAS-independent, luminescence (AID 1935); type: functional; details: Homo sapiens;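 note: BJ fibroblasts immortalized with TERT plus LT and ST oncogenes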
[10] = cytotoxicity toward DRD oncogenic fibroblasts, dose response, cell-based, non-viral oncogenic, luminescence (AID 1934); type: functional; details: Homo sapiens
[11] = Luminescence Cell-Based Dose Retest to Confirm Inhibitors of Cancer Stem Cells. [Related pubchem assays (depositor defined):AID2717, AID2721]; type: functional; details: Homo sapiens
[12] = tested on: BJ; experiment: cytotoxicity toward Ras-transformed BJeLR fibroblasts, dose response, cell-based, alamar blue fluorescence, cherrypicked samples (AID 2631); type: functional; details: Homo sapiens;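 note: confirmatory dose-response assay in RAS-dependent BJ fibroblasts engineered with TERT, LT and ST, with cytotoxicity read by fluorescence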
[13] = tested on: BJ; experiment: cells; type: functional, cell-based; details: Homo sapiens
[14] = tested on: BJ; experiment: cytotoxicity toward BJ-TERT fibroblasts, dose response, cell-based, RAS-independent, luminescence (AID 1933); type: functional; details: Homo sapiens
[15] = molecular target: T5, Heat shock factor protein 1 (Mus musculus, UniProt P38532); experiment: inhibition of MG132-induced HSE-luciferase signal, confirmation, cell-based, NIH3T3, luminescence, dose retest (AID 2382); type: functional;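 note: NIH3T3 fibroblasts with HSF1-driven luciferase reporter stressed by proteasome inhibitor MG132; luminescence from HSF1-driven luciferase expression after 8 hours of MG132 stress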
T5 sequence (P38532 whole entry): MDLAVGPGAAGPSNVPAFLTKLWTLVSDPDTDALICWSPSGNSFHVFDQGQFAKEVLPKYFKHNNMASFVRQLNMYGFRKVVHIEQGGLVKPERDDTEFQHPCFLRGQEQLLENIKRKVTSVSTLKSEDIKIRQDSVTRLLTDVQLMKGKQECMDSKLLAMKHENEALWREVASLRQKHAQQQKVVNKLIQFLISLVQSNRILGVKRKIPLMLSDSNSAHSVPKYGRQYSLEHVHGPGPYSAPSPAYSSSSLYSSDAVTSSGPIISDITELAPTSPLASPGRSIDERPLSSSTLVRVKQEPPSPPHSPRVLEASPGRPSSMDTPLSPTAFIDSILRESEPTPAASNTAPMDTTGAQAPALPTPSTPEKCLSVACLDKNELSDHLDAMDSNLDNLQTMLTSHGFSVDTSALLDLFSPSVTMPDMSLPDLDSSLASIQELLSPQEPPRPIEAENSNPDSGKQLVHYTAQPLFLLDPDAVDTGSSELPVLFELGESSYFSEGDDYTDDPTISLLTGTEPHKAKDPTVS

[16] = HepG2 cell cytotoxicity, dose response, cytotoxicity control, plate reader, cherry-pick, antagonist series (AID 743416); type: functional, cell-based
[17] = HEK293 cell cytotoxicity, dose response, cytotoxicity control, plate reader, cherry-picked samples (AID 743446); type: functional, cell-based
[18] = HepG2 cell cytotoxicity, dose response, cytotoxicity control, cherry-picked samples (AID 1159577); type: functional, cell-based
[19] = P. falciparum Dd2 growth inhibitors, dose response, SYBR Green, cherry-picked samples (AID 1159567); type: functional, cell-based
[20] = Luminescence Cell-Based Dose Response HTS to Identify Inhibitors of 5'UTR Stem-Loop Driven Prion Protein mRNA Translation in H4 Neuroglioblastoma Cells. [Related pubchem assays: 1827 (Project Summary), 1813 (Primary HTS)]; type: functional
[21] = inhibitors of firefly luciferase expression or activity, dose response, H4 neuroglioma cells, luminescence (AID 1990); type: functional, cell-based
[22] = inhibitors of SNCA 5'UTR-driven reporter translation, confirmation, H4 neuroglioma cells, luminescence (AID 1988); type: functional, cell-based
[23] = tested on: Streptococcus sp. 'group A'; experiment: growth inhibition of control SK(-) GAS strain, dose response, counter-screen for streptokinase expression inhibitor project, luminescence, kanamycin, BacTiterGlo, confirmation (AID 1900); type: functional, organism-based
[24] = tested on: Streptococcus; experiment: Group A Streptococcus viability loss, dose response, counter-screen for streptokinase expression inhibitor project, luminescence, BacTiterGlo (AID 1915); type: functional, organism-based;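 note: potency for reduction of bacterial viability or growth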

T1 sequence (P11940 whole entry): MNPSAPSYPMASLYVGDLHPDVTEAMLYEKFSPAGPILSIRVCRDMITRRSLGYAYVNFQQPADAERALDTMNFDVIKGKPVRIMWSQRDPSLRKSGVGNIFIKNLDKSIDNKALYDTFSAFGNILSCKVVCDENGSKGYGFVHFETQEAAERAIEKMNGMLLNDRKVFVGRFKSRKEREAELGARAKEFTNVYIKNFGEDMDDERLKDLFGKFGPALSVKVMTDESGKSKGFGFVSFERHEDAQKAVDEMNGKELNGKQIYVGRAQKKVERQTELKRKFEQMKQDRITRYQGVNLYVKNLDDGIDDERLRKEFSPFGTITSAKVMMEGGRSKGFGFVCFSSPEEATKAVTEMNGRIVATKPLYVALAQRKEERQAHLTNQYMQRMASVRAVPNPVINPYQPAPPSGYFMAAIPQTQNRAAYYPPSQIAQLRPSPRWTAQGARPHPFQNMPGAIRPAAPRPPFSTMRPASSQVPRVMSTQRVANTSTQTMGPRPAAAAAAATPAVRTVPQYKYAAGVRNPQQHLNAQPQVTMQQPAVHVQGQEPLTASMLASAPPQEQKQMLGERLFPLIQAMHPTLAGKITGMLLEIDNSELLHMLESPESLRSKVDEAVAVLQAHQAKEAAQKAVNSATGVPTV
Sequence of Genome polyprotein (P29990 2492-3391 limits assumed): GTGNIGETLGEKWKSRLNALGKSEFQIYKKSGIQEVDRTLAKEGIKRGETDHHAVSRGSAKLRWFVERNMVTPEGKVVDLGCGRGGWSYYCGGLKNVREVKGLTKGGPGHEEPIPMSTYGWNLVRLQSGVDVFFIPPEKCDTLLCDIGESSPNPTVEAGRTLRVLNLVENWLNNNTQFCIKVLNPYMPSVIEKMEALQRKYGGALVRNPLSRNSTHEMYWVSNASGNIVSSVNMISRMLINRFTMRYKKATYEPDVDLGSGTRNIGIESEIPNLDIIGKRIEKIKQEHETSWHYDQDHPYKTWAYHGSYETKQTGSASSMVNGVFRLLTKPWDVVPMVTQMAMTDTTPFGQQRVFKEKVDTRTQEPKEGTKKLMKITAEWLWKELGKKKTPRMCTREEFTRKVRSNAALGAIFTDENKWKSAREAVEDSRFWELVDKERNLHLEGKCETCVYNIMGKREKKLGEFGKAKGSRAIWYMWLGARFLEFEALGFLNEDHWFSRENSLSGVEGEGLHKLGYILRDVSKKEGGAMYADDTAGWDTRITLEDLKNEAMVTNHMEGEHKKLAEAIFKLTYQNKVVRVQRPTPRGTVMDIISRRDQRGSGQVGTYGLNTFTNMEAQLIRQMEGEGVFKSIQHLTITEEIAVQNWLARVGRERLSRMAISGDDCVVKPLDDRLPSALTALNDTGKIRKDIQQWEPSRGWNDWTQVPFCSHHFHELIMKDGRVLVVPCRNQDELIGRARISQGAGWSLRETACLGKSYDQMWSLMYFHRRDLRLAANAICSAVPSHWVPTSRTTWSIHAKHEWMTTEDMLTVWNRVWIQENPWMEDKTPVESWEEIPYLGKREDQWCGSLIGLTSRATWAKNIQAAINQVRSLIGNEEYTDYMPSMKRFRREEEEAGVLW
Sequence of Induced myeloid leukemia cell differentiation protein Mcl-1 (Q07820 whole entry): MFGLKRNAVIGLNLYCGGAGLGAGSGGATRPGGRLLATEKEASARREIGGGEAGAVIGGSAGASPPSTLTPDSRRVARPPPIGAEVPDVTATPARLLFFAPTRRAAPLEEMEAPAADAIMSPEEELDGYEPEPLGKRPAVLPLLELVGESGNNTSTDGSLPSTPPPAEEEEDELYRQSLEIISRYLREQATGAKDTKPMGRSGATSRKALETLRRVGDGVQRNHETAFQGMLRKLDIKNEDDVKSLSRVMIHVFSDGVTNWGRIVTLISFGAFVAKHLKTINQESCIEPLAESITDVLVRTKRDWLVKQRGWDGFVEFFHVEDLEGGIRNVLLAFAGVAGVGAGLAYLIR
Sequence of Nonstructural protein 1 (Q194T2 whole entry): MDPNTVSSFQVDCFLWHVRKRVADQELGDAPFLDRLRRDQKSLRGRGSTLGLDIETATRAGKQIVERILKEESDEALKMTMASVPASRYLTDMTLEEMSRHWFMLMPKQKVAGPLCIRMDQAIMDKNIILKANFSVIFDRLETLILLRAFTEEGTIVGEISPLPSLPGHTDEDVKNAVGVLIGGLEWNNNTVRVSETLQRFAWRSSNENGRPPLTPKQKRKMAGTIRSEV

## CC(=O)c1cc(O)c2ccccc2c1O
[1]
  IC50: 29.7 µM (active)
[2]
  IC50: > 66 µM (inactive)
[3]
  EC50: 2.82 µM (active)
[4]
  AC50: 10.6 µM (active)
[5]
  IC50: 5.99 µM (active)
[6]
  IC50: > 66 µM (inactive)
[7]
  AC50: > 380 µM (inactive)

## CCN(CC)CCCNC(=O)c1cc(-c2ccccc2)c(N2CCCCC2)s1
[8]
  IC50: 88.3 µM (active)
[9]
  EC50: 12.8 µM (inconclusive)
[10]
  EC50: 10.1 µM (active)
[11]
  AC50: 3.79 µM (active)
[12]
  EC50: > 133 µM (inactive)
[13]
  EC50: 28.8 µM (active)
[14]
  EC50: 9.67 µM (active)

## O=S(=O)(Nc1ccc(O)c2ccccc12)c1ccc(OC(F)(F)F)cc1
[15]
  EC50: > 195 µM (not active)
[3]
  EC50: 0.0666 µM (active)
[16]
  AC50: > 52 µM (inactive)
[11]
  AC50: 6.55 µM (active)
[17]
  AC50: 24.9 µM (active)
[7]
  AC50: 0.26 µM (active)

## Cc1cc(C=O)c(C)n1-c1ccc(N2CCCCC2)c([N+](=O)[O-])c1
[4]
  AC50: > 20 µM (inactive)

## COc1cc([C@@H]2c3cc4c(cc3[C@@H](NC3CCN(Cc5ccccc5)CC3)[C@H]3COC(=O)[C@H]23)OCO4)cc(OC)c1O
[9]
  EC50: 0.297 µM (active)
[10]
  EC50: 2.38 µM (active)
[12]
  EC50: 0.554 µM (active)
[14]
  EC50: 1.33 µM (active)

## CO[C@@H]1CN(C)C(=O)c2cc(NC(=O)c3ccc(Oc4ccccc4)cc3)ccc2OC[C@@H](C)NC[C@@H]1C
[18]
  AC50: 20.7 µM (active)

## C[C@H](CO)N1C[C@H](C)[C@@H](CN(C)Cc2ccc3c(c2)OCO3)Oc2ccc(NC(=O)Nc3ccc4c(c3)OCO4)cc2CC1=O
[18]
  AC50: > 42 µM (inactive)
[19]
  AC50: 4.28 µM (active)

## COc1ccc(S(=O)(=O)N2CCCCN3[C@@H](CO)[C@@H](c4ccc(C#CCC(C)C)cc4)[C@@H]3C2)cc1
[18]
  AC50: 18.9 µM (active)
[19]
  AC50: 1.63 µM (active)

## CC1(C)N=C(N)N=C(N)N1c1ccccc1
[20]
  EC50: 15.6 µM (active)
[9]
  EC50: > 150 µM (not active)
[21]
  EC50: 6.38 µM (active)
[10]
  EC50: 14.9 µM (active)
[22]
  EC50: 1.62 µM (active)
[23]
  EC50: 357 nM (active)
[12]
  EC50: > 133 µM (inactive)
[13]
  EC50: 8.15 µM (active)
[14]
  EC50: > 150 µM (not active)
[24]
  EC50: 1.3 µM (active)
